Measurements from patent publication US20210161188A1, “POLYMETHOXYFLAVONES AS SWEETNESS ENHANCERS” (Firmenich SA, priority 2018, published 2021).

Columns and labels:
Format in all cases: in vivo, human
[1] = test system: sweetness of a reference water solution containing 4% sucrose (sucrose base); experiment: Sensory panel of 25 trained panelists, sweet taste modifying effect in 4% sucrose, with nose-clip; conditions: for enhancement of the sweetness of the sucrose base (in words): 5 ppm; for sweetness, With nose-clip (NC) / Significant level Student test (NC): 5 ppm in 4% sucrose; for sweetness, With nose-clip (NC): scale of −5 (strong masking) to 5 (strong enhancing), 0 = sucrose base; for Significant level Student test (NC): sweetness, with nose-clip
From the text: (§1) The taste of a sample of a composition according to several aspects presented herein, with regard to sweetness and/or sweetness enhancing properties, may be assessed in vivo by using a panel of trained sensory evaluators experienced in the sweet taste estimation procedure, e.g. in the sensory assay described e.g. in Examples 1 and 2, using a test base comprising a 4% sucrose solution, or similar composition.
(§2) In sensory studies, panelists are asked to take a sample of the liquid to be assessed (test substance, e.g. the test base comprising a composition according to several aspects presented herein) into the mouth and after some time allowed for taste perception, to spit the sample out completely. Subsequently, the panelists are asked to rinse their mouth well with water or black tea to reduce any potential carry over effects. The tasting of a sample can be repeated if required.
Sensory Evaluations: A sensory panel consisted of 25 trained panelists. The panelists were asked to evaluate the sweet taste modifying effect of the isolated individual polymethoxyflavones in a reference water solution containing 4% sucrose. The panelists evaluated samples containing TMS, HMQ, NOB, HMF, TAN and SIN (all at 5 ppm), and a mixture comprising a mixture of polymethoxyflavones (PMF mixture at 10 ppm), for taste properties (sweet) on a scale of −5 to 5 (−5 denoted strong masking effect and 5 denoted strong enhancing effect, 0 being the intensity of a reference water solution containing 4% sucrose—referred to herein as the sucrose base).

[2] = test system: sweetness of a reference water solution containing 4% sucrose (sucrose base); experiment: Additional sensory evaluation, 8 trained panelists, dose series in 4% sucrose
From the text: as §1, §2
Additional Sensory Evaluations: A sensory panel consisted of 8 trained panelists. The panelists were asked to evaluate the sweet taste modifying effect of 0.001, 0.1, 1, 2, and 20 ppm of either TMS, HMQ, or NOB in a reference water solution containing 4% sucrose, on a scale of −5 to 5 (−5 denoted strong masking effect and 5 denoted strong enhancing effect, 0 being the intensity of a reference water solution containing 4% sucrose—referred to herein as the sucrose base).

[3] = test system: sweetness of a reference water solution containing 4% sucrose; experiment: Additional sensory evaluation, 8 trained panelists, TMS, HMQ and TMS:HMQ mixtures in different ratio; conditions: for significance of sweetness enhancement: Low sugar beverage (4% sucrose)
From the text: as §1, §2
A sensory panel consisted of 8 trained panelists. The panelists were asked to evaluate the sweet taste modifying effect of 0.5, 1, 2 ppm of either TMS or HMQ as well as 1, 1.5, 2 ppm of TMS and HMQ mixture in different ratio in a reference water solution containing 4% sucrose.

[4] = test system: sweetness of reduce sugar fruit tea beverage; experiment: Additional sensory evaluation, 8 trained panelists, fruit tea beverage; parameters: significance of sweetness enhancement: key to the marks not given beside the values
From the text: as §1, §2
Additional Sensory Evaluations: A sensory panel consisted of 8 trained panelists. The panelists were asked to evaluate the sweet taste modifying effect of 0.001, 2 and 20 ppm of PMF mixture and 0.2 ppm of TMS, 0.1 ppm of HMQ, and 0.3 ppm of the mixture of TMS and HMQ at ratio of 2 to 1 in a reference low sugar fruit tea beverage solution as well as standard sugar fruit tea beverage solution.

[5] = at 0.1 and 0.001 ppm in 4% sucrose
[6] = at doses less than or equal to 2 ppm in 4% sucrose

`COc1ccc(-c2oc3c(OC)c(OC)c(OC)c(OC)c3c(=O)c2OC)cc1OC` [HMF, 3,5,6,7,8,3′,4′-heptamethoxyflavone] was tested, and the “enhancement of the sweetness of the sucrose base (in words)” value (“enhancement of the sweetness … (in words)” below) [1] was “Neither HMF, nor SIN had any observable enhancement of sweetness” and the “sweetness, With nose-clip (NC)” value [1] was 0.21.
`COc1ccc(-c2oc3cc(OC)c(OC)c(OC)c3c(=O)c2OC)cc1OC` [HMQ, 3,5,6,7,3′,4′-hexamethoxyflavone] was tested, and the “significance of sweetness enhancement” value ([2]; 0.001 ppm in 4% sucrose) was “+++”, the “significance of sweetness enhancement” value ([2]; 0.1 ppm in 4% sucrose) was “++” and the “significance of sweetness enhancement” value ([2]; 2 ppm in 4% sucrose) was “++”. For the same compound, the “sweetness enhancement effect (in words)” value [2, 5] was “significant sweetness enhancement effect”, the “sweetness enhancement effect (in words)” value [2, 6] was “better sweetness enhancement effect” and the “enhancement of the sweetness … (in words)” value [1] was “significantly enhance the sweetness of the sucrose base”. For the same compound, the “Significant level Student test (NC)” value [1] was “++”, the “sweetness, With nose-clip (NC)” value [1] was 0.57 and the “significance of sweetness enhancement” value ([3]; 0.5 ppm) was “++”. For the same compound, the “sweetness enhancement effect (in words)” value ([3]; 1 ppm) was “did not show any observable sweetness enhancement effect”, the “significance of sweetness enhancement” value ([3]; 2 ppm) was “++” and the “sweetness enhancement effect (in words)” value ([4]; 0.1 ppm in reduce sugar fruit tea beverage) was “did not show the sweetness enhancement effect”.
`COc1ccc(-c2cc(=O)c3c(OC)c(OC)c(OC)c(OC)c3o2)cc1OC` [NOB, 5,6,7,8,3′,4′-hexamethoxyflavone, reference compound] was tested, and the “significance of sweetness enhancement” value ([2]; 0.001 ppm in 4% sucrose) was “++”, the “sweetness enhancing properties (in words)” value ([2]; 0.001 to 20 ppm in 4% sucrose, in contrast to TMS and HMQ) was “less significant” and the “significance of sweetness enhancement” value ([2]; 1 ppm in 4% sucrose) was “++”. For the same compound, the “significance of sweetness enhancement” value ([2]; 20 ppm in 4% sucrose) was “++”, the “enhancement of the sweetness … (in words)” value [1] was “significantly enhance the sweetness of the sucrose base” and the “Significant level Student test (NC)” value [1] was “++”. For the same compound, the “sweetness, With nose-clip (NC)” value [1] was 0.37.
In the case of `COc1ccc(-c2cc(=O)c3c(OC)c(OC)c(OC)cc3o2)cc1OC` [SIN, 5,6,7,3′,4′-pentamethoxyflavone], the “enhancement of the sweetness … (in words)” value [1] is reported as “Neither HMF, nor SIN had any observable enhancement of sweetness” and the “sweetness, With nose-clip (NC)” value [1] is reported as 0.17.
`COc1ccc(-c2cc(=O)c3c(OC)c(OC)c(OC)c(OC)c3o2)cc1` [TAN, 5,6,7,8,4′-pentamethoxyflavone] was tested, and the “enhancement of the sweetness … (in words)” value [1] was “negative effect of sweetness”, the “Significant level Student test (NC)” value [1] was “−” and the “sweetness, With nose-clip (NC)” value [1] was −0.30.
With `COc1ccc(-c2cc(=O)c3c(OC)c(OC)c(OC)cc3o2)cc1` [TMS, 5,6,7,4′-tetramethoxyflavone] the “significance of sweetness enhancement” value ([2]; 0.001 ppm in 4% sucrose) was “++”, the “significance of sweetness enhancement” value ([2]; 0.1 ppm in 4% sucrose) was “++” and the “significance of sweetness enhancement” value ([2]; 1 ppm in 4% sucrose) was “++”. The “significance of sweetness enhancement” value ([2]; 2 ppm in 4% sucrose) was “+”, the “sweetness enhancement effect (in words)” value [2, 5] was “significant sweetness enhancement effect” and the “sweetness enhancement effect (in words)” value [2, 6] was “better sweetness enhancement effect”. For the same compound, the “enhancement of the sweetness … (in words)” value [1] was “significantly enhance the sweetness of the sucrose base”, the “Significant level Student test (NC)” value [1] was “++” and the “sweetness, With nose-clip (NC)” value [1] was 0.55. The “significance of sweetness enhancement” value ([3]; 1 ppm) was “++”, the “significance of sweetness enhancement” value ([3]; 2 ppm) was “+” and the “significance of sweetness enhancement” value ([4]; +0.2 ppm in reduce sugar fruit tea beverage) was “++”.
